Assay results taken from patent US10010623B2, “Lysosome-cleavable linker” (UCL Business PLC, priority 2012, dated 2018).

## O=C1OC(=O)C(Br)=C1Br [compound 1, 2,3-dibromo-maleic anhydride]
  melting point: 107 to 110 °C
